Data as given in patent US12247015B2, “3-amino-4H-benzo[e][1,2,4]thiadiazine 1,1-dioxide derivatives as inhibitors of MRGX2” (Solent Therapeutics, LLC, priority 2019, dated 2025).

target: hMRGX2 (CHO-K1 cells overexpressing MRGX2) (Homo sapiens (Human), UniProt Q96LB1); assay: In vitro inhibition (EC50) of intracellular calcium flux, FLIPR Tetra, substance P stimulation; assay type: cell-based; conditions: stimulated with MRGX2 ligand substance P, FLIPR Calcium 5, read-out: hMRGX2 Cellular Potency (pEC50) (converted)
Experimental: In Vitro Inhibition (EC50) of Intracellular Calcium Flux
The release of intracellular calcium following stimulation of cells with substance P in the presence or absence of inhibitor compounds was measured using the FLIPR Tetra® system. CHO-K1 cells overexpressing MRGX2 were seeded into 384-well plates (Black clear bottom, TC-treated, Fisher #07-200-655) and incubated overnight to allow for cell attachment. Media was removed, and 1× loading buffer (FLIPR® Calcium 5 assay solution, Molecular Devices, per manufacturer specifications) was added. The plates were incubated at 37° C. for 30 minutes. Test compounds were added to cells (11-point dose response, 10 µM maximum concentration) and fluorescence measured (120 seconds, in real time) using the FLIPR Tetra® system. Immediately following, MRGX2 ligand substance P was added at a final concentration of 1 µM and fluorescence measured (120 seconds, in real time) using the FLIPR Tetra® system. The data for the examples are reported as pEC50.

Sequence of hMRGX2 (CHO-K1 cells overexpressing MRGX2) (Q96LB1 whole entry): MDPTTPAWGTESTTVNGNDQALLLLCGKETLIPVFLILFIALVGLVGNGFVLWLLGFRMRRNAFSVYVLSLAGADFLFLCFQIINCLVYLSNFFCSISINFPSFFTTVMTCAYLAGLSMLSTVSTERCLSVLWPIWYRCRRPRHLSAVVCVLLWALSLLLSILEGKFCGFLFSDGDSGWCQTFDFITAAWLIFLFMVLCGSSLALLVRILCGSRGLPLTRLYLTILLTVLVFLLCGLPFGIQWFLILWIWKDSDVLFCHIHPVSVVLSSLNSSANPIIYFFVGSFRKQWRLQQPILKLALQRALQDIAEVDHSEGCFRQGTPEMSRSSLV

| Compound | EC50 |
| --- | --- |
| COC(C)CNC1=NS(=O)(=O)c2cccc(-c3cccc(F)c3F)c2N1 (racemic) [Example 23, 5-(2,3-difluorophenyl)-3-((2-methoxypropyl)amino)-4H-benzo[e][1,2,4]thiadiazine 1,1-dioxide] | 0.0411 µM |
| COC(C)CCNC1=NS(=O)(=O)c2cccc(-c3cccc(F)c3Cl)c2N1 (racemic) [Example 153, 5-(2-chloro-3-fluorophenyl)-3-((3-methoxybutyl)amino)-4H-benzo[e][1,2,4]thiadiazine 1,1-dioxide] | 0.0273 µM |
| CO[C@H](C)CNC1=NS(=O)(=O)c2cccc(-c3cccc(F)c3F)c2N1 (single isomer, unassigned) [Example 24] | 0.0641 µM |
| CO[C@H](C)CNC1=NS(=O)(=O)c2cccc(-c3cc(F)cc(F)c3)c2N1 (single isomer, unassigned) [Example 85] | 0.249 µM |
| CO[C@@H](C)CNC1=NS(=O)(=O)c2cccc(-c3cc(F)cc(F)c3)c2N1 (single isomer, unassigned) [Example 86] | > 50.1 µM |
| CO[C@@H](C)CNC1=NS(=O)(=O)c2cccc(-c3cc(F)cc(F)c3F)c2N1 (single isomer, unassigned) [Example 128] | 0.0249 µM |
| CO[C@H](C)CNC1=NS(=O)(=O)c2cccc(-c3cc(F)cc(F)c3F)c2N1 (single isomer, unassigned) [Example 129] | 2.69 µM |
| CO[C@H](C)CCNC1=NS(=O)(=O)c2cccc(-c3cccc(F)c3Cl)c2N1 (single isomer, unassigned) [Example 154] | 0.0322 µM |
| O=S1(=O)N=C(NCc2nccs2)Nc2c(-c3cccc(F)c3Cl)cc(F)cc21 [Example 5, 5-(2-chloro-3-fluorophenyl)-7-fluoro-3-((thiazol-2-ylmethyl)amino)-4H-benzo[e][1,2,4]thiadiazine 1,1-dioxide] | 0.02 µM |
| CC(NC1=NS(=O)(=O)c2cc(F)cc(-c3cccc(F)c3Cl)c2N1)c1nccs1 (centres unmarked) [Example 8, 5-(2-chloro-3-fluorophenyl)-7-fluoro-3-((1-(thiazol-2-yl)ethyl)amino)-4H-benzo[e][1,2,4]thiadiazine 1,1-dioxide] | 0.11 µM |
| CC(NC1=NS(=O)(=O)c2cc(F)cc(-c3cccc(F)c3Cl)c2N1)c1cscn1 (centres unmarked) [Example 9, 5-(2-chloro-3-fluorophenyl)-7-fluoro-3-((1-(thiazol-4-yl)ethyl)amino)-4H-benzo[e][1,2,4]thiadiazine 1,1-dioxide] | 0.146 µM |
| O=S1(=O)N=C(NCC(F)F)Nc2c(-c3cccc(F)c3Cl)cc(F)cc21 [Example 10, 5-(2-chloro-3-fluorophenyl)-3-((2,2-difluoroethyl)amino)-7-fluoro-4H-benzo[e][1,2,4]thiadiazine 1,1-dioxide] | 0.0393 µM |
| O=S1(=O)N=C(NCCF)Nc2c(-c3cccc(F)c3Cl)cc(F)cc21 [Example 11, 5-(2-chloro-3-fluorophenyl)-7-fluoro-3-((2-fluoroethyl)amino)-4H-benzo[e][1,2,4]thiadiazine 1,1-dioxide] | 0.127 µM |
| CNC1=NS(=O)(=O)c2cc(F)cc(-c3ccccc3Cl)c2N1 [Example 13, 5-(2-chlorophenyl)-7-fluoro-3-(methylamino)-4H-benzo[e][1,2,4]thiadiazine 1,1-dioxide] | 0.0355 µM |
| COCCNC1=NS(=O)(=O)c2cc(F)cc(-c3ccccc3Cl)c2N1 [Example 14, 5-(2-chlorophenyl)-7-fluoro-3-((2-methoxyethyl)amino)-4H-benzo[e][1,2,4]thiadiazine 1,1-dioxide] | 0.0406 µM |
| CCNC1=NS(=O)(=O)c2cc(F)cc(-c3ccccc3Cl)c2N1 [Example 15, 5-(2-chlorophenyl)-3-(ethylamino)-7-fluoro-4H-benzo[e][1,2,4]thiadiazine 1,1-dioxide] | 0.0624 µM |
| O=S1(=O)N=C(NCC2CCC2)Nc2c(-c3cccc(F)c3Cl)cccc21 [Example 17, 5-(2-chloro-3-fluorophenyl)-3-((cyclobutylmethyl)amino)-4H-benzo[e][1,2,4]thiadiazine 1,1-dioxide] | 0.0207 µM |
| COc1cccc(CNC2=NS(=O)(=O)c3cccc(-c4cccc(F)c4Cl)c3N2)n1 [Example 18, 5-(2-chloro-3-fluorophenyl)-3-(((6-methoxypyridin-2-yl)methyl)amino)-4H-benzo[e][1,2,4]thiadiazine 1,1-dioxide] | 0.0213 µM |
| COc1cccc(CNC2=NS(=O)(=O)c3cccc(-c4cccc(F)c4F)c3N2)n1 [Example 19, 5-(2,3-difluorophenyl)-3-(((6-methoxypyridin-2-yl)methyl)amino)-4H-benzo[e][1,2,4]thiadiazine 1,1-dioxide] | 0.0234 µM |

| Compound | EC50 |
| --- | --- |
| Cn1cccc(CNC2=NS(=O)(=O)c3cccc(-c4cccc(F)c4F)c3N2)c1=O [Example 20, 3-(((5-(2,3-difluorophenyl)-1,1-dioxido-4H-benzo[e][1,2,4]thiadiazin-3-yl)amino)methyl)-1-methylpyridin-2(1H)-one] | 0.857 µM |
| O=S1(=O)N=C(NCCF)Nc2c(-c3cccc(F)c3F)cccc21 [Example 21, 5-(2,3-difluorophenyl)-3-((2-fluoroethyl)amino)-4H-benzo[e][1,2,4]thiadiazine 1,1-dioxide] | 0.738 µM |
| O=S1(=O)N=C(NCC2CCC2)Nc2c(-c3cccc(F)c3F)cccc21 [Example 22, 3-((cyclobutylmethyl)amino)-5-(2,3-difluorophenyl)-4H-benzo[e][1,2,4]thiadiazine 1,1-dioxide] | 0.0805 µM |
| CO[C@@H](C)CNC1=NS(=O)(=O)c2cccc(-c3cccc(F)c3F)c2N1 [Example 25, (S)-5-(2,3-difluorophenyl)-3-((2-methoxypropyl)amino)-4H-benzo[e][1,2,4]thiadiazine 1,1-dioxide] | 2.75 µM |
| CNC1=NS(=O)(=O)c2cccc(-c3cccc(F)c3F)c2N1 [Example 26, 5-(2,3-difluorophenyl)-3-(methylamino)-4H-benzo[e][1,2,4]thiadiazine 1,1-dioxide] | 0.389 µM |
| O=S1(=O)N=C(NCc2ncco2)Nc2c(-c3cccc(F)c3F)cccc21 [Example 27, 5-(2,3-difluorophenyl)-3-((oxazol-2-ylmethyl)amino)-4H-benzo[e][1,2,4]thiadiazine 1,1-dioxide] | 0.344 µM |
| O=S1(=O)N=C(NCC2CC2)Nc2c(-c3cccc(F)c3Cl)cccc21 [Example 29, 5-(2-chloro-3-fluorophenyl)-3-((cyclopropylmethyl)amino)-4H-benzo[e][1,2,4]thiadiazine 1,1-dioxide] | 0.0268 µM |
| Cc1coc(CNC2=NS(=O)(=O)c3cccc(-c4cccc(F)c4Cl)c3N2)n1 [Example 30, 5-(2-chloro-3-fluorophenyl)-3-(((4-methyloxazol-2-yl)methyl)amino)-4H-benzo[e][1,2,4]thiadiazine 1,1-dioxide] | 0.0286 µM |
| O=S1(=O)N=C(NCc2ccccn2)Nc2c(-c3cccc(F)c3Cl)cccc21 [Example 31, 5-(2-chloro-3-fluorophenyl)-3-((pyridin-2-ylmethyl)amino)-4H-benzo[e][1,2,4]thiadiazine 1,1-dioxide] | 0.0299 µM |
| COCCNC1=NS(=O)(=O)c2cccc(-c3cc(F)cc(F)c3Cl)c2N1 [Example 32, 5-(2-chloro-3,5-difluorophenyl)-3-((2-methoxyethyl)amino)-4H-benzo[e][1,2,4]thiadiazine 1,1-dioxide] | 0.0357 µM |
| COC(C)CNC1=NS(=O)(=O)c2cccc(-c3cccc(F)c3Cl)c2N1 (centres unmarked) [Example 33, 5-(2-chloro-3-fluorophenyl)-3-((2-methoxypropyl)amino)-4H-benzo[e][1,2,4]thiadiazine 1,1-dioxide] | 0.0382 µM |
| COCCNC1=NS(=O)(=O)c2cccc(-c3ccnc(F)c3Cl)c2N1 [Example 36, 5-(3-chloro-2-fluoropyridin-4-yl)-3-((2-methoxyethyl)amino)-4H-benzo[e][1,2,4]thiadiazine 1,1-dioxide] | 0.0504 µM |
| COCCNC1=NS(=O)(=O)c2cccc(-c3cccc(F)c3F)c2N1 [Example 37, 5-(2,3-difluorophenyl)-3-((2-methoxyethyl)amino)-4H-benzo[e][1,2,4]thiadiazine 1,1-dioxide] | 0.394 µM |
| Cc1cnc(CNC2=NS(=O)(=O)c3cccc(-c4cccc(F)c4Cl)c3N2)o1 [Example 38, 5-(2-chloro-3-fluorophenyl)-3-(((5-methyloxazol-2-yl)methyl)amino)-4H-benzo[e][1,2,4]thiadiazine 1,1-dioxide] | 0.0519 µM |
| COC(C)CNC1=NS(=O)(=O)c2cccc(-c3ccccc3Cl)c2N1 (centres unmarked) [Example 40, 5-(2-chlorophenyl)-3-((2-methoxypropyl)amino)-4H-benzo[e][1,2,4]thiadiazine 1,1-dioxide] | 0.0762 µM |
| O=S1(=O)N=C(NCc2ccccn2)Nc2c(-c3ccccc3Cl)cccc21 [Example 41, 5-(2-chlorophenyl)-3-((pyridin-2-ylmethyl)amino)-4H-benzo[e][1,2,4]thiadiazine 1,1-dioxide] | 0.0264 µM |
| CCNC1=NS(=O)(=O)c2cccc(-c3ccccc3Cl)c2N1 [Example 42, 5-(2-chlorophenyl)-3-(ethylamino)-4H-benzo[e][1,2,4]thiadiazine 1,1-dioxide] | 0.0771 µM |
| O=S1(=O)N=C(NCC(F)F)Nc2c(-c3ccccc3Cl)cccc21 [Example 44, 5-(2-chlorophenyl)-3-((2,2-difluoroethyl)amino)-4H-benzo[e][1,2,4]thiadiazine 1,1-dioxide] | 0.186 µM |
| O=S1(=O)N=C(NCCF)Nc2c(-c3ccccc3Cl)cccc21 [Example 45, 5-(2-chlorophenyl)-3-((2-fluoroethyl)amino)-4H-benzo[e][1,2,4]thiadiazine 1,1-dioxide] | 0.305 µM |
